Reference: BigSolDB 2.1

Cc1nc(-c2ccc(OCC(C)C)c(C#N)c2)sc1C(=O)O
solubility (mole fraction)
Conditions	293.15 K	298.15 K	303.15 K	308.15 K	313.15 K	318.15 K	323.15 K	328.15 K
in acetone	0.00623	0.00743	0.00921	0.0107	0.0129	0.0147	0.0162	0.0171
in ethanol	0.00122	0.00177	0.00269	0.00401	0.00584	0.00836	0.0109	0.0143
in ethyl acetate	0.00376	0.00456	0.00516	0.00643	0.00732	0.00828	0.00975	0.0114
in methanol	0.000524	0.000856	0.00117	0.00162	0.00229	0.00325	0.0045	0.00685
